Consider five molecules from US8741932B2, “Imidazopyridine derivatives” (Piramal Enterprises Limited, priority 2009, dated 2014).

One experiment deals with TNF-α. The experiment can be described thus: Synovial tissue assay, TNF-α. The conditions noted are these: Homo sapiens; synovial tissue cells from rheumatoid arthritis patients, 16 hours. The class given is cell-based. Summed up:
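Collagenase-digested synovial cells from rheumatoid arthritis patients (1×10^6 cells/ml, RPMI with 5% FBS and 5% human AB serum) incubated 16 h at 37° C with compounds at 0.01–100 μM, 0.5% DMSO. Cytokines in supernatants measured by ELISA; cytotoxicity by MTS at 490 nm versus DMSO-treated cells.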

In another experiment the test system is A549. Description: Cytotoxicity assay (propidium iodide), A549. The class given is cell-based. Particulars: Homo sapiens; A549 (C1a, lung); 48 hours.
A further experiment has as its system FaDu. The experiment can be described thus: Cytotoxicity assay (propidium iodide), FaDu. The class given is cell-based. Particulars: Homo sapiens; FaDu (C11a, hypopharyngeal); 48 hours.
For another experiment, the system named is T47D. Description: Cytotoxicity assay (propidium iodide), T47D. The class given is cell-based. Particulars: Homo sapiens; T47D (C6e, breast); 48 hours.
Another experiment has as its system OVCAR 3. The experiment can be described thus: Cytotoxicity assay (propidium iodide), OVCAR 3. In kind it is cell-based. Particulars: Homo sapiens; OVCAR 3 (C3c, ovarian); 48 hours.
In another experiment the test system is PC3. Description: Cytotoxicity assay (propidium iodide), PC3. Particulars: Homo sapiens, PC-3, 48 h, read-out: IC50 cytotoxicity.
In experiment [1] the test system is DSS-induced colitis in C57BL/6J mice. Description: Ulcerative colitis, DSS-induced colitis in mice. The class given is in vivo. Particulars: 3% DSS, 10 mg/kg orally daily, day 6 to day 10. Here is the method:
The efficacy of compounds of the present invention on the gross pathology of colitis and proinflammatory mediators was determined by following the method described in Am. J. Physiol. Gastrointest. Liver Physiol.
C57BL/6J mice (6 weeks of age, weighing 18-22 gms) were obtained from Jackson Laboratories (Bar Harbor, Me.) and housed in individually ventilated cage (IVC) system. Colitis was induced in mice by replacing drinking water with 3% (w/v) DSS (molecular weight 35-50 kDa, ICN Biomedicals, Aurora, Ohio, US) in water. This solution was made available to the experimental animals ad libitum, from day 0 to day 10. A batch of six naive animals received water instead of DSS during this period.
DSS-induction of colitis was manifested with increase in clinical disease activity index associated with weight loss and presence of blood in feces.
The animals were weighed every day and the record of body weights was maintained. The compound of Example 25 (10 mg/kg, prepared at a concentration of 1 mg/mL in 0.5% (w/v) CMC after mixing a drop of Tween 20) was administered orally daily to the colitis induced animals. This treatment was initiated on day 6 and continued up to day 10. During this period, DSS control animals received DSS, positive control animals received 5-aminosalicylic acid (5-ASA, 25 mg/kg, p.o.) and naïve animals received 0.5% CMC once daily.
At the end of DSS treatment period, mice were humanely euthanized with 15% urethane (i.p.). The whole colon (i.e., including ceacum, proximal colon and distal colon) was excised.
The colon was macrosopically assessed by determining • a) Rectal bleeding/blood in faeces • b) Stool consistency • c) Blood in colon • d) Colon length • e) % weight loss • f) Blood hemoglobin concentration
Disease Activity Index: various features were scored as delineated in the following table.
Disease activity index is the sum of scores of all features.

A further experiment concerns BT 549. Description: Cytotoxicity assay (propidium iodide), BT 549. The class given is cell-based. The conditions noted are these: Homo sapiens; BT 549 (C6d, breast); 48 hours.
In a further experiment the test system is H460. The experiment can be described thus: Cytotoxicity assay (propidium iodide), H460. The class given is cell-based. Particulars: Homo sapiens, NCI-H460; H460 (C1b, lung); 48 hours.
A further experiment deals with MCF7. The experiment can be described thus: Cytotoxicity assay (propidium iodide), MCF7. The conditions noted are these: Homo sapiens; MCF7 (C6c, breast); 48 hours. The class given is cell-based.
In a further experiment the test system is MDA MB 231. Description: Cytotoxicity assay (propidium iodide), MDA MB 231. The class given is cell-based. The conditions noted are these: Homo sapiens; MDA MB 231 (C6a, breast); 48 hours.
A further experiment concerns U266B1. Description: Cytotoxicity assay (propidium iodide), U266B1. Particulars: U266B1 (C7a, multiple myeloma); 48 hours. In kind it is cell-based.
The next experiment deals with U 373. The experiment can be described thus: Cytotoxicity assay (propidium iodide), U 373. Particulars: Homo sapiens, U373 MG; U 373 (C8a, glioblastoma); 48 hours. In kind it is cell-based.
A further experiment concerns G361. Description: Cytotoxicity assay (propidium iodide), G361. In kind it is cell-based. Particulars: G-361; G361 (C9a, human melanoma); 48 hours.

Bounds are passed on as bounds.

Protocol for BT 549: (§1) Cells from cell lines as mentioned in the table given below were seeded at a density of 3000 cells/well in a white opaque 96-well plate. Following incubation at 37° C./5% CO2 for a period of 18-24 hours, the cells were treated with various concentrations (stock solution was prepared in DMSO and subsequent dilutions were made in media as per ATCC guidelines) of the representative compounds of present invention (refer table 3) for a period of 48 hours. At the end of treatment, the spent culture medium was discarded, the cells were washed with 1×PBS and 200 μl of 7 μg/ml propidium iodide was added to each well. The plates were frozen at −70° C. for at least 24 hours. For analysis, the plates were brought to RT, allowed to thaw and were read in PolarStar fluorimeter with the fluorescence setting. The percentage of viable cells in the non treated set of wells was considered to be 100 and the percentage viability following treatment was calculated accordingly. IC50 values were calculated from graphs plotted using these percentages.
Protocol for FaDu: as §1
Protocol for G361: as §1
Protocol for MCF7: as §1
Protocol for MDA MB 231: as §1
Protocol for OVCAR 3: as §1
Protocol for PC3: as §1
Protocol for T47D: as §1
Protocol for U 373: as §1
Protocol for U266B1: as §1

On to `CN(N=Cc1cnc2ccc(-c3cccnc3)cn12)S(=O)(=O)c1cc(F)cc(F)c1` [Example 16, 3,5-Difluoro-N-methyl-N′-((6-(pyridine-3-yl)imidazo[1,2-a]pyridine-3-yl)methylene) benzenesulfonohydrazide], for which the half-inhibitory concentration (IC50) – broadly, the midpoint of a concentration-inhibition curve – in the experiment with TNF-α fell in the range of 0.01 to 0.3 µM.
Regarding `CN(N=Cc1cnc2ccc(-c3cccnc3)cn12)S(=O)(=O)c1ccc(F)cc1` [Example 6, 4-Fluoro-N-methyl-N′-((6-(pyridine-3-yl)imidazo[1,2-a]pyridine-3-yl)methylene)benzenesulfonohydrazide], the IC50 with A549 is 10 to 5000 nM; in the experiment with FaDu, 10 to 5000 nM; in the experiment with TNF-α, 0.01 to 0.3 µM; in the experiment on T47D it was > 5000 nM; with OVCAR 3 it was 10 to 5000 nM.
Consider `Cc1ccc([N+](=O)[O-])cc1S(=O)(=O)N(C)N=Cc1cnc2ccc(-c3cccnc3)cn12` [Example 25], for which the IC50 lay in the range of 10 to 5000 nM in the experiment with PC3; 10 to 5000 nM with A549; 10 to 5000 nM with BT 549; 10 to 5000 nM with H460; 0.01 to 0.3 µM in the experiment on TNF-α; 10 to 5000 nM with MCF7. The IC50 in the experiment on T47D, in the experiment on MDA MB 231 and in the experiment with OVCAR 3 was 10 to 5000 nM each time. Also, the “DSS-induced body weight loss” value in experiment [1] is on record as “attenuated”. Besides, the DSS-induced colon bleeding result in [1] is reported as “attenuated”. The “DSS-induced decrease in hematocrit” value in experiment [1] was “inhibited”. In addition, the “DSS-induced disease activity index” value in experiment [1] is reported as “reduced”. Also, the “DSS-induced shortening of colon” value in experiment [1] is “inhibited”. Moreover, the rectal bleeding index entry in experiment [1] is “improved”.
On to `Cc1ccc(F)cc1S(=O)(=O)N(C)N=Cc1cnc2ccc(-c3cccnc3)cn12` [Example 21, 5-Fluoro-N, 2-dimethyl-N′-((6-(pyridine-3-yl)imidazo[1,2-a]pyridine-3-yl)methylene) benzenesulfonohydrazide], for which the IC50 in the experiment with PC3, with A549, with U266B1, with BT 549, in the experiment on H460 and with U 373 was 10 to 5000 nM throughout. The IC50 with TNF-α fell in the range of 0.01 to 0.3 µM; in the experiment with MCF7 it was 10 to 5000 nM; in the experiment with G361 it was 10 to 5000 nM; with MDA MB 231, 10 to 5000 nM; with OVCAR 3, 10 to 5000 nM.
As to `CN(N=Cc1cnc2ccc(-c3cccnc3)cn12)S(=O)(=O)c1cccc(F)c1` [Example 5, 3-Fluoro-N-methyl-N′-((6-(pyridine-3-yl)imidazo[1,2-a]pyridine-3-yl)methylene)benzenesulfonohydrazide], the IC50 is 10 to 5000 nM in the experiment on A549; 10 to 5000 nM in the experiment with FaDu; 0.01 to 0.3 µM in the experiment with TNF-α; > 5000 nM in the experiment on T47D; 10 to 5000 nM with OVCAR 3.
